Data: patent publication US20260022142A1, “MACROCYCLIC IMMUNOMODULATORS” (Bristol-Myers Squibb Company, priority 2022, published 2026)
Bridge positions count the residues as written; N and C are the ends. Square brackets hold non-standard residues; d marks the D form. Peptide text beside a SMILES is read from it. * marks the point of attachment. ξ: configuration not given here. Phe(3-CF3) = N[C@@H](Cc1cccc(C(F)(F)F)c1)C(=O)O; Phe(4-COOH) = N[C@@H](Cc1ccc(C(=O)O)cc1)C(=O)O; Bip = N[C@@H](Cc1ccc(-c2ccccc2)cc1)C(=O)O; Abu(4,4,4-F3) = N[C@@H](CC(F)(F)F)C(=O)O; NH(CH2)14COOH = O=C(O)CCCCCCCCCCCCCCN*; Phe(3-Me) = Cc1cccc(C[C@H](N)C(=O)O)c1; NH(CH2)12COOH = O=C(O)CCCCCCCCCCCCN*; Val(3-OH) = CC(C)(O)[C@H](N)C(=O)O; Cha = N[C@@H](CC1CCCCC1)C(=O)O; Thr(3ξ) = CC(O)[C@H](N)C(=O)O; Carboxymethyl = O=C(O)C*; Orn = NCCC[C@H](N)C(=O)O; Dab = NCC[C@H](N)C(=O)O; AEEA = NCCOCCOCC(=O)O; CF3 = FC(F)(F)*

Each molecule was assayed against T1, PD-1/PD-L1 interaction (PE-labeled human PD-L1-Ig binding to Jurkat cell line over-expressing human PD-1) (Homo sapiens, UniProt Q15116) (assay: Jurkat-PD-1 Cell Binding High-Content Screening Assay (CBA)). Settings: Jurkat cell line over-expressing human PD-1; PE-labeled PD-L1-Ig 20 nM final; read-out: Jurkat hPD1-PDL1 IC50.
T1 construct: expressed in transfected cells; host or cells: Jurkat
Format: cell-based
Procedure, shortened: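 Jurkat cells over-expressing human PD-1 (8×10^3 per well, DMEM/10% FCS) preincubated with compound 2 h at 37° C, then PE-labeled human PD-L1-Ig (20 nM final) added for 1 h. Cells fixed with paraformaldehyde, Hoechst-stained, and bound fluorescence quantified by high-content imaging.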

T1 sequence (Q15116 25-288): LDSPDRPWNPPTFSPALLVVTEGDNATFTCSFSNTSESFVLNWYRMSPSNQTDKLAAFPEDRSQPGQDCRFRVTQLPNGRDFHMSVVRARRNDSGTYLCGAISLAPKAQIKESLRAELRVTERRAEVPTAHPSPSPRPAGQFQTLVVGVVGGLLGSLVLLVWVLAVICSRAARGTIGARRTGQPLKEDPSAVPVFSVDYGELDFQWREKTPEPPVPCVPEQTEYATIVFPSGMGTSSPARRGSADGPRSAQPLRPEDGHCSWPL

| Structure (SMILES) | IC50 [nM] |
| --- | --- |
| Cc1cccc(C[C@@H]2NC(=O)[C@H](CC(=O)O)NC(=O)[C@H](Cc3ccc(OCC(=O)O)cc3)NC(=O)[C@H](C)NC(=O)CSC[C@@H](C(=O)N[C@@H](CCN)C(=O)NCCOCCOCC(=O)NCCOCCOCC(=O)NCCCCCCCCCCCCCCC(=O)O)NC(=O)[C@H](CO)NC(=O)[C@H](C(C)(C)O)NC(=O)[C@H](CC3CCCCC3)NC(=O)[C@H](CCN)NC(=O)[C@@H](CC(C)C)NC(=O)[C@H](CCCN)NC(=O)[C@H](Cc3ccc(C(=O)O)cc3)NC(=O)[C@H](Cc3ccc(-c4ccccc4)cc3)NC(=O)[C@H](Cc3ccc(C(=O)O)cc3)NC2=O)c1 [Compound 3853] ({CH2CO}-AY(Carboxymethyl)D[Phe(3-Me)][Phe(4-COOH)][Bip][Phe(4-COOH)][Orn][dL][Dab][Cha][Val(3-OH)]SC[Dab][AEEA][AEEA]-{NH(CH2)14COOH}; thioether N-14) | 104 |
| Cc1cccc(C[C@@H]2NC(=O)[C@H](CC(=O)O)NC(=O)[C@H](Cc3ccc(OCC(=O)O)cc3)NC(=O)[C@H](C)NC(=O)CSC[C@@H](C(=O)N[C@@H](CCN)C(=O)NCCOCCOCC(=O)NCCOCCOCC(=O)NCCOCCOCC(=O)NCCCCCCCCCCCCCCC(=O)O)NC(=O)[C@H](CO)NC(=O)[C@H](C(C)(C)O)NC(=O)[C@H](CC3CCCCC3)NC(=O)[C@H](CCN)NC(=O)[C@@H](CC(C)C)NC(=O)[C@H](CCCN)NC(=O)[C@H](Cc3ccc(C(=O)O)cc3)NC(=O)[C@H](Cc3ccc(-c4ccccc4)cc3)NC(=O)[C@H](Cc3ccc(C(=O)O)cc3)NC2=O)c1 [Compound 3854] ({CH2CO}-AY(Carboxymethyl)D[Phe(3-Me)][Phe(4-COOH)][Bip][Phe(4-COOH)][Orn][dL][Dab][Cha][Val(3-OH)]SC[Dab][AEEA][AEEA][AEEA]-{NH(CH2)14COOH}; thioether N-14) | 45.2 |
| Cc1cccc(C[C@@H]2NC(=O)[C@H](CC(=O)O)NC(=O)[C@H](Cc3ccc(OCC(=O)O)cc3)NC(=O)[C@H](C)NC(=O)CSC[C@@H](C(=O)N[C@@H](CCN)C(=O)NCCOCCOCC(=O)NCCOCCOCC(=O)NCCCCCCCCCCCCCCC(=O)O)NC(=O)[C@H](Cc3cnc[nH]3)NC(=O)[C@H](C(C)(C)O)NC(=O)[C@H](CC3CCCCC3)NC(=O)[C@H](CCN)NC(=O)[C@@H](CC(C)C)NC(=O)[C@H](CCCN)NC(=O)[C@H](Cc3ccc(C(=O)O)cc3)NC(=O)[C@H](Cc3ccc(-c4ccccc4)cc3)NC(=O)[C@H](Cc3ccc(C(=O)O)cc3)NC2=O)c1 [Compound 3855] ({CH2CO}-AY(Carboxymethyl)D[Phe(3-Me)][Phe(4-COOH)][Bip][Phe(4-COOH)][Orn][dL][Dab][Cha][Val(3-OH)]HC[Dab][AEEA][AEEA]-{NH(CH2)14COOH}; thioether N-14) | 119 |
| Cc1cccc(C[C@@H]2NC(=O)[C@H](CC(=O)O)NC(=O)[C@H](Cc3ccc(OCC(=O)O)cc3)NC(=O)[C@H](C)NC(=O)CSC[C@@H](C(=O)N[C@@H](CCN)C(=O)NCCOCCOCC(=O)NCCOCCOCC(=O)NCCOCCOCC(=O)NCCCCCCCCCCCCCCC(=O)O)NC(=O)[C@H](Cc3cnc[nH]3)NC(=O)[C@H](C(C)(C)O)NC(=O)[C@H](CC3CCCCC3)NC(=O)[C@H](CCN)NC(=O)[C@@H](CC(C)C)NC(=O)[C@H](CCCN)NC(=O)[C@H](Cc3ccc(C(=O)O)cc3)NC(=O)[C@H](Cc3ccc(-c4ccccc4)cc3)NC(=O)[C@H](Cc3ccc(C(=O)O)cc3)NC2=O)c1 [Compound 3856] ({CH2CO}-AY(Carboxymethyl)D[Phe(3-Me)][Phe(4-COOH)][Bip][Phe(4-COOH)][Orn][dL][Dab][Cha][Val(3-OH)]HC[Dab][AEEA][AEEA][AEEA]-{NH(CH2)14COOH}; thioether N-14) | 94.2 |
| CC(C)C[C@H]1NC(=O)[C@H](Cc2cnc[nH]2)NC(=O)[C@H](Cc2ccc(C(=O)O)cc2)NC(=O)[C@H](Cc2ccc(-c3ccccc3)cc2)NC(=O)[C@H](Cc2ccc(C(=O)O)cc2)NC(=O)[C@H](Cc2cccc(C(F)(F)F)c2)NC(=O)[C@H](CC(=O)O)NC(=O)[C@H](Cc2ccc(OCC(=O)O)cc2)NC(=O)[C@H](CC(F)(F)F)NC(=O)CSC[C@@H](C(=O)N[C@@H](CCN)C(=O)NCCCCCCCCCCCCC(=O)O)NC(=O)[C@H](CO)NC(=O)[C@H](C(C)(C)O)NC(=O)[C@H](CC2CCCCC2)NC(=O)[C@H](CCN)NC1=O [Compound 3857] ({CH2CO}-[Abu(4,4,4-F3)]Y(Carboxymethyl)D[Phe(3-CF3)][Phe(4-COOH)][Bip][Phe(4-COOH)]H[dL][Dab][Cha][Val(3-OH)]SC[Dab]-{NH(CH2)12COOH}; thioether N-14) | 166 |
| CC(=O)NCCCC[C@@H]1NC(=O)[C@H](C(C)(C)O)NC(=O)[C@H](CC2CCCCC2)NC(=O)[C@H](CCN)NC(=O)[C@@H](CC(C)C)NC(=O)[C@H](CCCN)NC(=O)[C@H](Cc2ccc(C(=O)O)cc2)NC(=O)[C@H](Cc2ccc(-c3ccccc3)cc2)NC(=O)[C@H](Cc2ccc(C(=O)O)cc2)NC(=O)[C@H](Cc2cccc(C)c2)NC(=O)[C@H](CC(=O)O)NC(=O)[C@H](Cc2ccc(OC(F)(F)F)cc2)NC(=O)[C@H](Cc2ccc(OCC(=O)O)cc2)NC(=O)CSC[C@@H](C(=O)N[C@@H](CCN)C(=O)NCCOCCOCC(=O)NCCCCCCCCCCCCC(=O)O)NC1=O [Compound 3859] ({CH2CO}-Y(Carboxymethyl)Y(CF3)D[Phe(3-Me)][Phe(4-COOH)][Bip][Phe(4-COOH)][Orn][dL][Dab][Cha][Val(3-OH)]K(Ac)C[Dab][AEEA]-{NH(CH2)12COOH}; thioether N-14) | 52.7 |
| CC(C)C[C@H]1NC(=O)[C@H](Cc2cnc[nH]2)NC(=O)[C@H](Cc2ccc(OCC(=O)O)cc2)NC(=O)[C@H](Cc2ccc(-c3ccccc3)cc2)NC(=O)[C@H](Cc2ccc(C(=O)O)cc2)NC(=O)[C@H](Cc2cccc(C(F)(F)F)c2)NC(=O)[C@H](CC(=O)O)NC(=O)[C@H](Cc2ccc(OCC(=O)O)cc2)NC(=O)[C@H](C(C)O)NC(=O)CSC[C@@H](C(=O)N[C@@H](CCN)C(=O)NCCCCCCCCCCCCCCC(=O)O)NC(=O)[C@H](C(C)O)NC(=O)[C@H](C(C)(C)O)NC(=O)[C@H](CC2CCCCC2)NC(=O)[C@H](CCN)NC1=O (stereo partly drawn) [Compound 3861] ({CH2CO}-[Thr(3ξ)]Y(Carboxymethyl)D[Phe(3-CF3)][Phe(4-COOH)][Bip]Y(Carboxymethyl)H[dL][Dab][Cha][Val(3-OH)][Thr(3ξ)]C[Dab]-{NH(CH2)14COOH}; thioether N-14) | 348 |
| CC(C)C[C@H]1NC(=O)[C@H](Cc2cnc[nH]2)NC(=O)[C@H](Cc2ccc(OCC(=O)O)cc2)NC(=O)[C@H](Cc2ccc(-c3ccccc3)cc2)NC(=O)[C@H](Cc2ccc(C(=O)O)cc2)NC(=O)[C@H](Cc2cccc(C(F)(F)F)c2)NC(=O)[C@H](CC(=O)O)NC(=O)[C@H](Cc2ccc(OCC(=O)O)cc2)NC(=O)[C@H](C)NC(=O)CSC[C@@H](C(=O)N[C@@H](CCN)C(=O)NCCCCCCCCCCCCCCC(=O)O)NC(=O)[C@H](C(C)O)NC(=O)[C@H](C(C)(C)O)NC(=O)[C@H](CC2CCCCC2)NC(=O)[C@H](CCN)NC1=O (stereo partly drawn) [Compound 3862] ({CH2CO}-AY(Carboxymethyl)D[Phe(3-CF3)][Phe(4-COOH)][Bip]Y(Carboxymethyl)H[dL][Dab][Cha][Val(3-OH)][Thr(3ξ)]C[Dab]-{NH(CH2)14COOH}; thioether N-14) | 368 |
